According to patent US7253146B2, “Template-fixed peptidomimetics with antimicrobial activity” (Polyphor Ltd, priority 2001, dated 2007):
Converted amounts (≈) assume the structure as drawn. *1 amine or outer side, *2 acyl side, *3 side chain or, on linkers, in order; H or OH if unused. Where a SMILES comes first, the peptide text is derived from it. [ ]: non-standard residue; d: D form. X3 = O=C(N[C@H]1C[C@@H](C(=O)[*:2])N([*:1])C1)C1CCCCC1; X2 = CCCCCCCC(=O)N[C@H]1C[C@@H](C(=O)[*:2])N([*:1])C1; Cha = N[C@@H](CC1CCCCC1)C(=O)O; Nle = CCCC[C@H](N)C(=O)O

Key:
[1] = test system: Staphylococcus aureus ATCC 29213; conditions: ATCC 29213
Method: (§1) Lyophilized peptides were weighed on a Microbalance (Mettler MT5) and dissolved in sterile water containing 0.01% acetic acid Tachyplesin was purchased from Bachem Ltd. (Bubendorf Switzerland).
(§2) The antimicrobial activities of the peptides were determined by the standard NCCLS broth microdilution method (see ref 1, below) examined in sterile 96-wells plates (Nunclon polystyrene microtiter plates) in a total volume of 100 μl. […] 10^6 colony forming units (CFU)/ml for bacteria or 5×10^3 CFU/ml for Candida. Aliquots (50 μl) of the innocula were added to 50 μl of MH broth containing the peptide in serial twofold dilutions. The microorganisms used were Escherichia coli (ATCC 25922), Pseudomnonas aeruginosa (P. aeruginosa) (ATCC 27853), Stahylococcus aureus (ATCC 29213 and ATCC 25923) and Candida albicans. A selected number of peptides were screened for activity against a larger panel of gram-negative strains. These strains were; Escherichia coli ATCC 43827 and clinical isolates of Pseudomonas (P. aeruginosa V07 14482, P. aeruginosa 15288, P. aeruginosa V02 15328 and P. aeruginosa V09 16085) and Acinetobacter (Acinetobacter V04 19905/1, Acinetobacter V12 21143/1 and Acinetobacter V12 21193/1).

[2] = test system: Escherichia coli (ATCC 25922); conditions: ATCC 25922
Method: as §1, §2

[3] = test system: Candida albicans
Method: as §1, §2

[4] = test system: Staphylococcus aureus ATCC 25923; conditions: ATCC 25923
Method: as §1, §2

| MIC Staphylococcus aureus ATCC 29213 [1] | MIC Escherichia coli ATCC 25922 [2] | MIC Candida albicans [3] | MIC Staphylococcus aureus ATCC 25923 [4] | Compound |
| --- | --- | --- | --- | --- |
| 25 µg/mL (≈ 15.6 µM) | 25 µg/mL (≈ 15.6 µM) | 25 µg/mL (≈ 15.6 µM) | 50 µg/mL (≈ 31.2 µM) | CC(C)C[C@@H]1NC(=O)[C@H](CCCNC(=N)N)NC(=O)[C@H](CCCNC(=N)N)NC(=O)[C@H](CCCNC(=N)N)NC(=O)[C@H](Cc2ccccc2)NC(=O)[C@H](Cc2ccccc2)NC(=O)[C@H](CC(C)C)NC(=O)[C@H](CC(C)C)NC(=O)[C@@H]2CCCN2C(=O)[C@H]2CCCN2C(=O)[C@H](CCCNC(=N)N)NC(=O)[C@H](Cc2ccccc2)NC1=O [Example 40] (cyclo(LLFFRRRLFR[dP]P)) |
| 25 µg/mL (≈ 13.3 µM) | 9.4 µg/mL (≈ 5.02 µM) | 12.5 µg/mL (≈ 6.67 µM) | 25 µg/mL (≈ 13.3 µM) | CC(C)C[C@@H]1NC(=O)[C@H](CCCNC(=N)N)NC(=O)[C@H](CC(C)C)NC(=O)[C@@H]2CCCN2C(=O)[C@H]2CCCN2C(=O)[C@H](C(C)C)NC(=O)[C@H](CCCNC(=N)N)NC(=O)[C@H](Cc2ccc(O)cc2)NC(=O)[C@H](CCCCN)NC(=O)[C@H](Cc2ccccc2)NC(=O)[C@H](CCCNC(=N)N)NC(=O)[C@H](CCCNC(=N)N)NC(=O)[C@H](Cc2ccc(O)cc2)NC(=O)[C@H](CCCCN)NC1=O [Example 103] (cyclo(LRLKYRRFKYRV[dP]P)) |
| 25 µg/mL (≈ 15.2 µM) | 25 µg/mL (≈ 15.2 µM) | 25 µg/mL (≈ 15.2 µM) | 50 µg/mL (≈ 30.4 µM) | CC(C)C[C@@H]1NC(=O)[C@H](CCCNC(=N)N)NC(=O)[C@H](CCCNC(=N)N)NC(=O)[C@H](CCCNC(=N)N)NC(=O)[C@H](Cc2ccccc2)NC(=O)[C@H](Cc2ccccc2)NC(=O)[C@H](CC(C)C)NC(=O)[C@H](CCCNC(=N)N)NC(=O)[C@@H]2CCCN2C(=O)[C@H]2CCCN2C(=O)[C@H](CCCNC(=N)N)NC(=O)[C@H](Cc2ccccc2)NC1=O [Example 36] (cyclo(RLFFRRRLFR[dP]P)) |
| 12.5 µg/mL (≈ 7.12 µM) | 6.2 µg/mL (≈ 3.53 µM) | 12.5 µg/mL (≈ 7.12 µM) | 25 µg/mL (≈ 14.2 µM) | CC(C)C[C@@H]1NC(=O)[C@H](Cc2ccccc2)NC(=O)[C@H](CC(C)C)NC(=O)[C@H](Cc2ccccc2)NC(=O)[C@@H]2CCCN2C(=O)[C@H]2CCCN2C(=O)[C@H](CCCNC(=N)N)NC(=O)[C@H](CCCNC(=N)N)NC(=O)[C@H](Cc2ccccc2)NC(=O)[C@H](CC(C)C)NC(=O)[C@H](CCCNC(=N)N)NC(=O)[C@H](CCCNC(=N)N)NC(=O)[C@H](CCCNC(=N)N)NC1=O [Example 63] (cyclo(FLFLRRRLFRR[dP]P)) |

The next lines start with the compound.

| Compound | MIC Staphylococcus aureus ATCC 29213 [1] | MIC Escherichia coli ATCC 25922 [2] | MIC Candida albicans [3] | MIC Staphylococcus aureus ATCC 25923 [4] |
| --- | --- | --- | --- | --- |
| CCCCCCCC(=O)N[C@H]1C[C@H]2C(=O)N[C@@H](CC(C)C)C(=O)N[C@@H](CCCNC(=N)N)C(=O)N[C@@H](CC(C)C)C(=O)N[C@@H](CCCCN)C(=O)N[C@@H](CCCCN)C(=O)N[C@@H](CCCNC(=N)N)C(=O)N[C@@H](CCCNC(=N)N)C(=O)N[C@@H](Cc3c[nH]c4ccccc34)C(=O)N[C@@H](CCCCN)C(=O)N[C@@H](Cc3ccc(O)cc3)C(=O)N[C@@H](CCCNC(=N)N)C(=O)N[C@@H](C(C)C)C(=O)N3CCC[C@@H]3C(=O)N2C1 [Example 257] (cyclo(KKRRWKYRV[dP][X2]LRL)) | 6.2 µg/mL (≈ 3.07 µM) | 6.2 µg/mL (≈ 3.07 µM) | 25 µg/mL (≈ 12.4 µM) | 6.2 µg/mL (≈ 3.07 µM) |
| CC(C)C[C@@H]1NC(=O)[C@H](CCCNC(=N)N)NC(=O)[C@H](CC(C)C)NC(=O)[C@@H]2C[C@H](NC(=O)C3CCCCC3)CN2C(=O)[C@H]2CCCN2C(=O)[C@H](C(C)C)NC(=O)[C@H](CCCNC(=N)N)NC(=O)[C@H](Cc2ccc(O)cc2)NC(=O)[C@H](CCCCN)NC(=O)[C@H](Cc2c[nH]c3ccccc23)NC(=O)[C@H](CCCNC(=N)N)NC(=O)[C@H](CCCNC(=N)N)NC(=O)[C@H](CCCCN)NC(=O)[C@H](CCCCN)NC1=O [Example 267] (cyclo(KKRRWKYRV[dP][X3]LRL)) | 6.2 µg/mL (≈ 3.09 µM) | 12.5 µg/mL (≈ 6.24 µM) | 12.5 µg/mL (≈ 6.24 µM) | 12.5 µg/mL (≈ 6.24 µM) |
| CC[C@H](C)[C@@H]1NC(=O)[C@H](CCCCN)NC(=O)[C@H](Cc2c[nH]c3ccccc23)NC(=O)[C@H](CCCNC(=N)N)NC(=O)[C@H](CCCNC(=N)N)NC(=O)[C@H](CCCCN)NC(=O)[C@H](CCCCN)NC(=O)[C@H](CC(C)C)NC(=O)[C@H](CCCNC(=N)N)NC(=O)[C@H](CC(C)C)NC(=O)[C@@H]2CCCN2C(=O)[C@H]2CCCN2C(=O)[C@H](C(C)C)NC(=O)[C@H](CCCNC(=N)N)NC1=O [Example 152] (cyclo(LRLKKRRWKIRV[dP]P)) | 50 µg/mL (≈ 27.3 µM) | 25 µg/mL (≈ 13.7 µM) | 12.5 µg/mL (≈ 6.84 µM) | 25 µg/mL (≈ 13.7 µM) |
| CC(C)C[C@@H]1NC(=O)[C@H](CCCNC(=N)N)NC(=O)[C@H](CC2CCCCC2)NC(=O)[C@@H]2CCCN2C(=O)[C@H]2CCCN2C(=O)[C@H](C(C)C)NC(=O)[C@H](CCCNC(=N)N)NC(=O)[C@H](Cc2ccc(O)cc2)NC(=O)[C@H](CCCCN)NC(=O)[C@H](Cc2c[nH]c3ccccc23)NC(=O)[C@H](CCCNC(=N)N)NC(=O)[C@H](CCCNC(=N)N)NC(=O)[C@H](CCCCN)NC(=O)[C@H](CCCCN)NC1=O [Example 121] (cyclo([Cha]RLKKRRWKYRV[dP]P)) | 6.2 µg/mL (≈ 3.23 µM) | 25 µg/mL (≈ 13 µM) | 6.2 µg/mL (≈ 3.23 µM) | 6.2 µg/mL (≈ 3.23 µM) |
| CC(C)C[C@@H]1NC(=O)[C@H](CCCNC(=N)N)NC(=O)[C@H](CC(C)C)NC(=O)[C@H](CC2CCCCC2)NC(=O)[C@H]2CCCN2C(=O)[C@H](C(C)C)NC(=O)[C@H](CCCNC(=N)N)NC(=O)[C@H](Cc2ccc(O)cc2)NC(=O)[C@H](CCCCN)NC(=O)[C@H](Cc2c[nH]c3ccccc23)NC(=O)[C@H](CCCNC(=N)N)NC(=O)[C@H](CCCNC(=N)N)NC(=O)[C@H](CCCCN)NC(=O)[C@H](CCCCN)NC1=O [Example 254] (cyclo([Cha]LRLKKRRWKYRV[dP])) | 6.2 µg/mL (≈ 3.21 µM) | 12.5 µg/mL (≈ 6.46 µM) | 12.5 µg/mL (≈ 6.46 µM) | 12.5 µg/mL (≈ 6.46 µM) |
| CC(C)C[C@@H]1NC(=O)[C@H](CCCNC(=N)N)NC(=O)[C@H](CCCNC(=N)N)NC(=O)[C@H](CCCNC(=N)N)NC(=O)[C@H](Cc2ccc(O)cc2)NC(=O)[C@H](Cc2ccc(O)cc2)NC(=O)[C@H](CCCNC(=N)N)NC(=O)[C@@H]2CCCN2C(=O)[C@H]2CCCN2C(=O)[C@H](CCCNC(=N)N)NC(=O)[C@H](Cc2ccc(O)cc2)NC1=O [Example 11] (cyclo(RYYRRRLYR[dP]P)) | 100 µg/mL (≈ 63.4 µM) | 25 µg/mL (≈ 15.8 µM) | 100 µg/mL (≈ 63.4 µM) | 100 µg/mL (≈ 63.4 µM) |
| CCCC[C@@H]1NC(=O)[C@H](CCCCN)NC(=O)[C@H](Cc2c[nH]c3ccccc23)NC(=O)[C@H](CCCNC(=N)N)NC(=O)[C@H](CCCNC(=N)N)NC(=O)[C@H](CCCCN)NC(=O)[C@H](CCCCN)NC(=O)[C@H](CC(C)C)NC(=O)[C@H](CCCNC(=N)N)NC(=O)[C@H](CC(C)C)NC(=O)[C@@H]2CCCN2C(=O)[C@H]2CCCN2C(=O)[C@H](C(C)C)NC(=O)[C@H](CCCNC(=N)N)NC1=O [Example 154] (cyclo(LRLKKRRWK[Nle]RV[dP]P)) | 25 µg/mL (≈ 13.7 µM) | 12.5 µg/mL (≈ 6.84 µM) | 12.5 µg/mL (≈ 6.84 µM) | 12.5 µg/mL (≈ 6.84 µM) |
| CC(C)C[C@@H]1NC(=O)[C@H](CCCNC(=N)N)NC(=O)[C@H](CCCCN)NC(=O)[C@@H]2CCCN2C(=O)[C@H]2CCCN2C(=O)[C@H](CCCNC(=N)N)NC(=O)[C@H](CC(C)C)NC(=O)[C@H](C(C)C)NC(=O)[C@H](CCCCN)NC(=O)[C@H](C(C)C)NC(=O)[C@H](Cc2ccc(O)cc2)NC(=O)[C@H](Cc2c[nH]c3ccccc23)NC(=O)[C@H](CCCNC(=N)N)NC(=O)[C@H](CCCNC(=N)N)NC(=O)[C@H](CCCNC(=N)N)NC(=O)[C@H](Cc2c[nH]c3ccccc23)NC(=O)[C@H](Cc2ccc(O)cc2)NC(=O)[C@H](CCCCN)NC1=O [Example 87] (cyclo(KRLKYWRRRWYVKVLR[dP]P)) | 9.4 µg/mL (≈ 3.79 µM) | 6.2 µg/mL (≈ 2.5 µM) | 12.5 µg/mL (≈ 5.03 µM) | 9.4 µg/mL (≈ 3.79 µM) |
